Article PMC8292763, “Mechanism of BIP-4 mediated inhibition of InsP3Kinase-A” (Bioscience Reports, 2021)

Experiments:
InsP3Kinase-A [1] = target: T1, InsP3Kinase-A (Homo sapiens, UniProt P23677, K264Q); test: activity of purified mutant with and without BIP-[…] to […]); format: biochemical
T1 construct: gene ITPKA; full-length

InsP3Kinase-A [2] = target: T2, InsP3Kinase-A (Homo sapiens, UniProt P23677); test: coupled PK/LDH assay with Lineweaver-Burk; thermal shift +[…] °C on wt; format: biochemical; design: gene ITPKA; full-length, tag-less
InsP3Kinase-A [3] = target: T2, InsP3Kinase-A; test: biochemical; design: gene ITPKA; full-length GST-InsP3Kinase-A; details: ADP-Glo, 5 uM compound, normalized to positive control
Protocol: For the inhibitor screening, the compounds were diluted in dimethylsulfoxide (DMSO, Sigma), and a final compound concentration of 5 µM was applied to each well. Each measurement was performed in triplicates. As controls, a positive control (enzyme solution with InsP3Kinase and without compounds, but with DMSO), a negative control (enzyme buffer without InsP3Kinase), and an inhibitor control (quercetin and BIP-4) were applied. In each well, there was a final buffer concentration of 20 mM HEPES pH 7.5, 5 mM MgCl2, 30 mM KCl, 1 mM DTT, 0.5 mM ATP, and an enzyme concentration between 20 nM and 55 nM was applied. […] Then, 10 µl of ADP-Glo reagent was added (depleting remaining ATP and stopping InsP3Kinase enzymatic reaction) and incubated for 20 min at room temperature (RT). […] For luminescent measurement, a TECAN infinite 200 plate reader was used with an integration time of 1000 ms at a temperature of 30°C. For this screen, all measurements were performed in triplicates, three-times using the ADP Glo assay.

InsP3Kinase-A [4] = target: T2, InsP3Kinase-A; test: biochemical; design: gene ITPKA; full-length GST-InsP3Kinase-A; details: ADP-Glo, 5 uM compound, normalized to positive control; remark: listed apart in the source
Protocol: For the inhibitor screening, the compounds were diluted in dimethylsulfoxide (DMSO, Sigma), and a final compound concentration of 5 µM was applied to each well. Each measurement was performed in triplicates. […] In each well, there was a final buffer concentration of 20 mM HEPES pH 7.5, 5 mM MgCl2, 30 mM KCl, 1 mM DTT, 0.5 mM ATP, and an enzyme concentration between 20 nM and 55 nM was applied. […] Then, 10 µl of ADP-Glo reagent was added (depleting remaining ATP and stopping InsP3Kinase enzymatic reaction) and incubated for 20 min at room temperature (RT). Next, 10 µl kinase detection reagent (converting remaining ADP to ATP and containing luciferase, which uses ATP as substrate) was added, and incubation was continued for 15 min at RT. For luminescent measurement, a TECAN infinite 200 plate reader was used with an integration time of 1000 ms at a temperature of 30°C. For this screen, all measurements were performed in triplicates, three-times using the ADP Glo assay.

T2 sequence (P23677 whole entry): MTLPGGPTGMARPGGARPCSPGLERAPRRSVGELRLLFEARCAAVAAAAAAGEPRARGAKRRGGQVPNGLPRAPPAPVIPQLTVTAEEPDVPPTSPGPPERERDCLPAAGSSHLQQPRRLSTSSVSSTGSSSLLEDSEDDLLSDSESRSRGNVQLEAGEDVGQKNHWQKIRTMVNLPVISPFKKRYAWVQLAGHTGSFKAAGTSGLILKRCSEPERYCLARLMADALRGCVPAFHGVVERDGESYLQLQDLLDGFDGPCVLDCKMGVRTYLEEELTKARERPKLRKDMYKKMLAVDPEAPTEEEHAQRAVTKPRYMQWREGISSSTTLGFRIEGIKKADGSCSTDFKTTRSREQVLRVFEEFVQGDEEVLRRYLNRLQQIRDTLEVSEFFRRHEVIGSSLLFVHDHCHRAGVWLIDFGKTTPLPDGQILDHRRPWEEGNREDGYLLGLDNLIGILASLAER
T1 sequence (P23677 whole entry K264Q): as the sequence (P23677 whole entry) above, with K264Q counted along it

SMILES | inhibition at 5 µM (InsP3Kinase-A [3]) [%] | further results
Cc1nn(-c2ccc([N+](=O)[O-])cc2)c(C)c1N1C(=O)c2cc([N+](=O)[O-])cc3cc([N+](=O)[O-])cc(c23)C1=O [BIP-4, 2-[3,5-dimethyl-1-(4-nitrophenyl)-1H-pyrazol-4-yl]-5,8-dinitro-1H-benzo[de]isoquinoline-1,3(2H)-dione] |  | Enzyme activity + BIP4 in % (InsP3Kinase-A [1]): 18.797 % enzyme activity with BIP-4; Ki (InsP3Kinase-A [2]): 437 nM
Cc1ccc(N2C(=O)c3cc([N+](=O)[O-])cc4cc([N+](=O)[O-])cc(c34)C2=O)c(C)c1 [compound 19, 19] | 36.2 | 
O=C1c2cc([N+](=O)[O-])cc3cc([N+](=O)[O-])cc(c23)C(=O)N1c1ccccc1Cl [compound 28, 28] | 19.7 | 
O=C1c2cc([N+](=O)[O-])cc3cc([N+](=O)[O-])cc(c23)C(=O)N1c1ccc(Br)cn1 [compound 78, 78] |  | inhibition at 5 µM (InsP3Kinase-A [4]): 1.6%

Second part, led by results:

inhibition at 5 µM (InsP3Kinase-A [3]) [%] | SMILES | further results
31.4 | CCOc1ccc(N2C(=O)c3cc([N+](=O)[O-])cc4cc([N+](=O)[O-])cc(c34)C2=O)cc1 [compound 27, 27] | 
33.4 | CNS(=O)(=O)c1ccc(N2C(=O)c3cc([N+](=O)[O-])cc4cc([N+](=O)[O-])cc(c34)C2=O)cc1 [compound 31, 31] | 
41.6 | CCN(CC)S(=O)(=O)c1ccc(N2C(=O)c3cc([N+](=O)[O-])cc4cc([N+](=O)[O-])cc(c34)C2=O)cc1 [compound 33, 33] | 
